From patent EP4778531A1, “MUSCLE RELAXANT ANTAGONIST FOR REVERSAL FOR BENZYLISOQUINOLINE MUSCLE RELAXANT” (priority 2023, dated 2025)

Tests used:
[1] = such as mivacurium, atracurium, and cisatracurium; background; cited from earlier work
[2] = system: Inflammation-Related Factors; type: in vivo, ICR mice; settings: Adamgammadex sodium 1 g/kg, Sugammadex sodium 1 mg/kg, Neostigmine 0.3 mg/kg
Procedure: An antibody array is a type of protein chip characterized by miniaturization, integration, and high throughput. It can be used to detect the expression abundance of proteins related to a specific physiological or pathological process. The principle involves arranging capture antibodies on a membrane or glass slide, incubating with the sample, adding biotin-labeled antibodies against the target proteins, and finally using HRP-streptavidin or fluorescein-streptavidin to detect the chip signal. Signals are detected using chemiluminescence or HiLyte™ Fluor 555-streptavidin.
In this experiment, ICR mice were randomly divided into a blank group, Adamgammadex sodium (1 g/kg) group, Sugammadex sodium (1 mg/kg) group, and Neostigmine (0.3 mg/kg) group, with 2 mice per group. Mice in each group given the corresponding dosage of compound via the tail vein once daily for 5 consecutive days. On the last day after administration, plasma from the 2 animals per group was mixed and detected using the Ary028 immune chip kit. Specific detection steps were as follows: • (1) Sample volume determination: 200 µL serum sample per Array unit. (2) Blocking protein chip: Each membrane was blocked with 2 mL of corresponding Array Buffer, incubated on a shaker for 1 hour. (3) Sample processing: Samples were diluted with corresponding Array Buffer to a volume of 1.5 mL per membrane, the corresponding Array unit was added, and incubated overnight with the Array protein membrane at 4°C. (4) Membranes were washed three times with corresponding Wash buffer, then diluted detection antibody was added and incubated at room temperature for 1 h. (5) Membranes were washed three times with corresponding Wash buffer, streptavidin-HRP was added and incubated for 30min at room temperature with shaking. (6) Membranes were washed three times with corresponding Wash buffer, 1 mL of chemiluminescent reagent was added to each well, and developed on a chemiluminescence imager. (7) Fluorescence intensity was used to represent the relative concentration of the corresponding protein.

[3] = system: neuromuscular blockade induced by atracurium; settings: H. D. de Boer et al., British Journal of Anaesthesia 2006; cited from earlier work
[4] = ICR mice, tail vein once daily for 5 days, pooled plasma of 2 mice, N.D. = below minimum detection limit

SMILES: O=C([O-])CCSC[C@H]1O[C@@H]2O[C@H]3[C@H](O)[C@@H](O)[C@@H](O[C@H]4[C@H](O)[C@@H](O)[C@@H](O[C@H]5[C@H](O)[C@@H](O)[C@@H](O[C@H]6[C@H](O)[C@@H](O)[C@@H](O[C@H]7[C@H](O)[C@@H](O)[C@@H](O[C@H]8[C@H](O)[C@@H](O)[C@@H](O[C@H]9[C@H](O)C(O)[C@@H](O[C@H]1[C@H](O)[C@H]2O)O[C@@H]9CSCCC(=O)[O-])O[C@@H]8CSCCC(=O)[O-])O[C@@H]7CSCCC(=O)[O-])O[C@@H]6CSCCC(=O)[O-])O[C@@H]5CSCCC(=O)[O-])O[C@@H]4CSCCC(=O)[O-])O[C@@H]3CSCCC(=O)[O-].[Na+].[Na+].[Na+].[Na+].[Na+].[Na+].[Na+].[Na+] (stereo partly drawn) [Compound 7, Sugammadex sodium]
- binding to succinylcholine or benzylisoquinoline-type neuromuscular blocking agents (in words) [1]: does not bind
- Fluorescence Intensity BAFF/BlyS/ TNFSF13B (B cell activation factor) [2, 4]: 13375.34
- Fluorescence Intensity C-Reactive Protein/CRP (C-reactive protein) [2, 4]: 8550.52
- Fluorescence Intensity CCL21/6Ckine (Lymphocyte chemokine CCL21) [2, 4]: 27027.2
- Fluorescence Intensity CCL22/MDC (Macrophage-derived chemokine) [2, 4]: 2578.89
- Fluorescence Intensity CD160 (Leukocyte differentiation antigen160) [2, 4]: 187.67
- Fluorescence Intensity CXCL9/MIG (IFN-γ-induced monocyte factor) [2, 4]: 3617.92
- Fluorescence Intensity Chemerin (Chemotactic factor) [2, 4]: 4629.24
- Fluorescence Intensity IL-7 (Interleukin-7) [2, 4]: 1922.84
- Fluorescence Intensity IL-11 (Interleukin-11) [2, 4]: 216.49
- Fluorescence Intensity IL-12p40 (Interleukin IL-12p40) [2, 4]: 1049.34
- Fluorescence Intensity IL-28 (Interleukin-28) [2, 4]: 2440.68
- Fluorescence Intensity IL-33 (Interleukin-33) [2, 4]: 592.77
- Fluorescence Intensity M-CSF (Macrophage colony-stimulating factor) [2, 4]: 5871.05
- Fluorescence Intensity Myeloperoxidase (Mastoperoxidase) [2, 4]: 4645.21
- Fluorescence Intensity Pentraxin 3 (Pertussis toxin 3) [2, 4]: 4555.53
- Fluorescence Intensity TIM-1/KIM-1/ HAVCR (Hepatitis A virus receptor-1 (inflammation/ immunity)) [2, 4]: 1023.1
- impact on inducing immune inflammation in mice (in words) ([2]; conclusion from Tables 3 and 4): second-lowest impact
- Fluorescence Intensity M-CSF (Macrophage lysis-stimulating factor) ([2]; second M-CSF line of Table 4, ICR mice, tail vein once daily for 5 days, pooled plasma of 2 mice, N.D. = below minimum detection limit): 5871.05
- Fluorescence Intensity Pentraxin 3/TSG-14 (Pertussis toxin 3) ([2]; second Pentraxin 3 line of Table 4, ICR mice, tail vein once daily for 5 days, pooled plasma of 2 mice, N.D. = below minimum detection limit): 4555.53
- reversing the neuromuscular blockade induced by atracurium (in words) [3]: ineffective
